In PubChem BioAssay (NCI):
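Assay format: 96-well plates, 48-hour exposure. TGI marks complete inhibition of growth.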

Assays:
Assay in all cases: NCI tumour cell line growth inhibition, 48 h
[1] = tested on: SF-539 CNS
[2] = tested on: UACC-257 melanoma
[3] = tested on: HCT-116 colon
[4] = tested on: HCT-15 colon
[5] = tested on: COLO 205 colon
[6] = tested on: SF-295 CNS
[7] = tested on: SN12C renal
[8] = tested on: BT-549 breast
[9] = tested on: RPMI-8226 leukemia
[10] = tested on: DU-145 prostate
[11] = tested on: SF-268 CNS
[12] = tested on: SR leukemia
[13] = tested on: MALME-3M melanoma
[14] = tested on: LXFL 529 NSCLC
[15] = tested on: IGROV1 ovarian
[16] = tested on: DLD-1 colon
[17] = tested on: NCI/ADR-RES ovarian
[18] = tested on: MDA-MB-435
[19] = tested on: NCI-H23 lung
[20] = tested on: HS 578T breast
[21] = tested on: SK-MEL-5 melanoma
[22] = tested on: SNB-78 CNS
[23] = tested on: 786-0 renal
[24] = tested on: PC-3 prostate
[25] = tested on: OVCAR-4 ovarian
[26] = tested on: KM12 colon
[27] = tested on: HT29 colon
[28] = tested on: RXF 393 renal
[29] = tested on: SK-MEL-2 melanoma
[30] = tested on: TK-10 renal
[31] = tested on: CAKI-1 renal
[32] = tested on: MCF7 breast
[33] = tested on: UACC-62 melanoma
[34] = tested on: CCRF-CEM leukemia
[35] = tested on: MOLT-4 leukemia
[36] = tested on: HL-60(TB) leukemia
[37] = tested on: SNB-75 CNS
[38] = tested on: NCI-H460 lung
[39] = tested on: DMS 273 small cell lung
[40] = tested on: OVCAR-5 ovarian
[41] = tested on: HOP-62 NSCLC
[42] = tested on: SNB-19 CNS
[43] = tested on: MDA-N
[44] = tested on: XF 498 CNS
[45] = tested on: KM20L2 colon
[46] = tested on: SK-OV-3 ovarian
[47] = tested on: M19-MEL melanoma
[48] = tested on: HOP-18 NSCLC
[49] = tested on: OVCAR-8 ovarian
[50] = tested on: NCI-H522 lung
[51] = tested on: M14 melanoma
[52] = tested on: SW-620 colon
[53] = tested on: RXF-631 renal
[54] = tested on: SK-MEL-28 melanoma
[55] = tested on: UO-31 renal
[56] = tested on: LOX IMVI melanoma
[57] = tested on: NCI-H226 lung
[58] = tested on: T-47D breast
[59] = tested on: MDA-MB-231 breast
[60] = tested on: HCC-2998 colon
[61] = tested on: OVCAR-3 ovarian
[62] = tested on: K-562 leukemia
[63] = tested on: A498 renal
[64] = tested on: HOP-92 NSCLC
[65] = tested on: EKVX NSCLC
[66] = tested on: DMS 114 small cell lung
[67] = tested on: ACHN renal
[68] = tested on: U251 CNS
[69] = tested on: A549 NSCLC

CCN(CC)CCNc1ccc2nnn3c4ccc([N+](=O)[O-])cc4c(=O)c1c23 gave a TGI [1] of 14.9 µM, a TGI [2] of over 69.4 µM and a TGI [3] of 19.7 µM. For the same compound, the TGI [4] was over 61 µM, the TGI [5] was over 100 µM and the TGI [6] was over 78.4 µM. The TGI [7] was over 83.6 µM, the TGI [8] was over 100 µM and the TGI [9] was 43.1 µM. For the same compound, the TGI [10] was over 100 µM, the TGI [11] was over 100 µM and the TGI [12] was over 33.6 µM. It also gave a TGI [13] of 62.9 µM, a TGI [14] of over 96.1 µM and a TGI [15] of over 100 µM. The TGI [16] was over 70.1 µM, the TGI [17] was 30.7 µM and the TGI [18] was over 100 µM. It also gave a TGI [19] of 98.5 µM, a TGI [20] of 73.8 µM and a TGI [21] of 58.7 µM. For the same compound, the TGI [22] was 63.8 µM, the TGI [23] was 18.5 µM and the TGI [24] was over 100 µM. It also gave a TGI [25] of 48.9 µM, a TGI [26] of over 100 µM and a TGI [27] of over 55.5 µM. For the same compound, the TGI [28] was 18.9 µM, the TGI [29] was over 71.7 µM and the TGI [30] was over 45 µM. The TGI [31] was 27.3 µM, the TGI [32] was over 100 µM and the TGI [33] was over 100 µM. The TGI [34] was 44.3 µM, the TGI [35] was 32 µM and the TGI [36] was 30.2 µM. For the same compound, the TGI [37] was 42 µM, the TGI [38] was over 26.9 µM and the TGI [39] was 23.5 µM. For the same compound, the TGI [40] was 65.1 µM, the TGI [41] was over 71.3 µM and the TGI [42] was over 100 µM. The TGI [43] was over 100 µM, the TGI [44] was 18.3 µM and the TGI [45] was over 100 µM. For the same compound, the TGI [46] was over 100 µM, the TGI [47] was over 100 µM and the TGI [48] was over 100 µM. It also gave a TGI [49] of 16 µM, a TGI [50] of over 100 µM and a TGI [51] of 49.7 µM. It also gave a TGI [52] of 27.6 µM, a TGI [53] of 28.2 µM and a TGI [54] of 51.1 µM. The TGI [55] was 25 µM, the TGI [56] was 17.9 µM and the TGI [57] was 17 µM. It also gave a TGI [58] of over 100 µM, a TGI [59] of 24.4 µM and a TGI [60] of over 100 µM. The TGI [61] was over 100 µM, the TGI [62] was 32.8 µM and the TGI [63] was 23.8 µM. It also gave a TGI [64] of 40.6 µM, a TGI [65] of over 89.7 µM and a TGI [66] of 97.3 µM. For the same compound, the TGI [67] was 55.9 µM, the TGI [68] was 13 µM and the TGI [69] was over 53.2 µM.
